Experiments:
Colo205 cells = assay: Analysis of Cell Proliferation and Viability; assay type: cell-based; settings: Homo sapiens, COLO 205, 72 hours, lower bound 100 nM, upper bound 1 uM nM [sic], read-out: IC50 values after 72 hours
Method: Compounds were screened for their ability to inhibit cell proliferation and their effects on cell viability using Colo205 cells obtained from ECACC and using the assay shown below.
Colo205 cells were seeded in 96 well plates and serially diluted compound was added to the wells in duplicate. Control groups included untreated cells, the compound diluent (0.1% DMSO alone) and culture medium without cells. The cells were then incubated for 72 or 96 hrs at 37 C in an atmosphere of 5% CO2/95% humidity.
To measure proliferation, 3 h prior to the end of the experiment 0.5 μCi of 3H thymidine was added to each well. Cells were then harvested and the incorporated radioactivity counted on a Wallac microplate beta-counter. Cell viability was assessed using Promega CellTiter 96AQ to measure MTS conversion. Dose response curves were calculated using either Prism 3.0 (GraphPad) or SoftMax Pro 4.3.1 LS (Molecular Devices) software.

Aurora-1 (Aurora B) = Aurora-1 (Aurora B) (Homo sapiens, UniProt Q96GD4); assay: Aurora-1 (Aurora B) Inhibition Assay (Radiometric); assay type: biochemical; settings: 800 μM ATP, 25° C., read-out: inhibit Aurora A, Ki (printed under the Aurora-1 (Aurora B) assay)
Method: An assay buffer solution was prepared which consisted of 25 mM HEPES (pH 7.5), 10 mM MgCl2, 0.1% BSA and 10% glycerol. A 22 nM Aurora-B solution, also containing 1.7 mM DTT and 1.5 mM Kemptide (LRRASLG), was prepared in assay buffer. To 22 μL of the Aurora-B solution, in a 96-well plate, was added 2 μl of a compound stock solution in DMSO and the mixture allowed to equilibrate for 10 minutes at 25° C. The enzyme reaction was initiated by the addition of 16 μl stock [γ-^33P]-ATP solution (˜20 nCi/μL) prepared in assay buffer, to a final assay concentration of 800 μM. The reaction was stopped after 3 hours by the addition of 16 μL 500 mM phosphoric acid and the levels of ^33P incorporation into the peptide substrate were determined by the following method.
A phosphocellulose 96-well plate (Millipore, Cat no. MAPHNOB50) was pre-treated with 100 μL of a 100 mM phosphoric acid prior to the addition of the enzyme reaction mixture (40 μL). […] Levels of non-enzyme catalyzed background radioactivity were determined by adding 16 μL of the 500 mM phosphoric acid to control wells, containing all assay components (which acts to denature the enzyme), prior to the addition of the [γ-^33P]-ATP solution. Levels of enzyme catalyzed ^33P incorporation were calculated by subtracting mean background counts from those measured at each inhibitor concentration. […]

[1] = target: N-terminally truncated (Δ27) Abl kinase (Homo sapiens, UniProt P00519); assay: Abl Kinase Activity Inhibition Assay (coupled enzyme system); assay type: biochemical; settings: 110 μM ATP, 21 nM Abl kinase, 30° C.; read-out: inhibit Abl kinase, Ki value
Method: Compounds were screened for their ability to inhibit N-terminally truncated (Δ27) Abl kinase activity using a standard coupled enzyme system (Fox et al., Protein Sci., 7, pp. 2249 (1998)). Reactions were carried out in a solution containing 100 mM HEPES (pH 7.5), 10 mM MgCl2, 25 mM NaCl, 300 μM NADH, 1 mM DTT and 3% DMSO. Final substrate concentrations in the assay were 110 μM ATP (Sigma Chemicals, St Louis, Mo.) and 70 μM peptide (EAIYAAPFAKKK, American Peptide, Sunnyvale, Calif.). Reactions were carried out at 30° C. and 21 nM Abl kinase. Final concentrations of the components of the coupled enzyme system were 2.5 mM phosphoenolpyruvate, 200 μM NADH, 60 μg/ml pyruvate kinase and 20 μg/ml lactate dehydrogenase.
An assay stock buffer solution was prepared containing all of the reagents listed above with the exception of ATP and the test compound of interest. The assay stock buffer solution (60 μl) was incubated in a 96 well plate with 2 μl of the test compound of interest at final concentrations typically spanning 0.002 μM to 30 μM at 30° C. for 10 min. […] Rates of reaction were obtained using a Molecular Devices Spectramax plate reader (Sunnyvale, Calif.) over 10 min at 30° C. The Ki values were determined from the residual rate data as a function of inhibitor concentration using nonlinear regression (Prism 3.0, Graphpad Software, San Diego, Calif.).

Aurora-2 (Aurora A) = target: T1, Aurora-2 (Aurora A) (Homo sapiens, UniProt O14965); assay: Aurora-2 (Aurora A) Inhibition Assay (coupled enzyme assay); assay type: biochemical; settings: 400 μM ATP, 40 nM Aurora-2, 30° C.; read-out: inhibit Aurora A, Ki
T1 sequence (O14965 1-403): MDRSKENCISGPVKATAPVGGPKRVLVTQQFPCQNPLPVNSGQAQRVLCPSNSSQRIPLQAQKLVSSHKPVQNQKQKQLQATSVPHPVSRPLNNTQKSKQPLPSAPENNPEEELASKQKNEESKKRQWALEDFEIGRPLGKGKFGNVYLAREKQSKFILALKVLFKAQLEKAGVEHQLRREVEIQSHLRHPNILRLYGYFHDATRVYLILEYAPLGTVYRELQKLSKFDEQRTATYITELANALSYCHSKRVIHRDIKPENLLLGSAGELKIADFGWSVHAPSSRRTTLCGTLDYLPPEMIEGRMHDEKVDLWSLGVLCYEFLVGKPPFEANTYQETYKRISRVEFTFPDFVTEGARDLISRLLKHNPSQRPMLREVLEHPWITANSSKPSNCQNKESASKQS
Method: Compounds were screened for their ability to inhibit Aurora-2 using a standard coupled enzyme assay (Fox et al., Protein Sci., (1998) 7, 2249). Assays were carried out in a mixture of 100 mM Hepes (pH7.5), 10 mM MgCl2, 1 mM DTT, 25 mM NaCl, 2.5 mM phosphoenolpyruvate, 300 μM NADH, 30 μg/ml pyruvate kinase and 10 μg/ml lactate dehydrogenase. Final substrate concentrations in the assay were 400 μM ATP (Sigma Chemicals) and 570 μM peptide (Kemptide, American Peptide, Sunnyvale, Calif.). Assays were carried out at 30° C. and in the presence of 40 nM Aurora-2.
An assay stock buffer solution was prepared containing all of the reagents listed above, with the exception of Aurora-2 and the test compound of interest. 55 μl of the stock solution was placed in a 96 well plate followed by addition of 2 μl of DMSO stock containing serial dilutions of the test compound (typically starting from a final concentration of 7.5 μM). The plate was preincubated for 10 minutes at 30° C. and the reaction initiated by addition of 10 μl of Aurora-2. Initial reaction rates were determined with a Molecular Devices SpectraMax Plus plate reader over a 10 minute time course. IC50 and Ki data were calculated from non-linear regression analysis using the Prism software package (GraphPad Prism version 3.0cx for Macintosh, GraphPad Software, San Diego Calif., USA).

Aurora-1 (Aurora B), sequence (Q96GD4 whole entry): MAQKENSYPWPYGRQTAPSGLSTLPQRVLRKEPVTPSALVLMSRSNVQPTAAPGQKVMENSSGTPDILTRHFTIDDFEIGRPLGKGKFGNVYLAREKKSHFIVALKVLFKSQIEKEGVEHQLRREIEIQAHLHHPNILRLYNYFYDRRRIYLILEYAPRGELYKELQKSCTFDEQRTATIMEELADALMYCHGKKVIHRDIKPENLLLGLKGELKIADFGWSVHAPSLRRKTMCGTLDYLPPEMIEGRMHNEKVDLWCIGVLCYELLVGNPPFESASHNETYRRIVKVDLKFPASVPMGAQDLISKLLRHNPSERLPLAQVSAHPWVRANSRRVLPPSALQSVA
N-terminally truncated (Δ27) Abl kinase, sequence (P00519 whole entry, stated change not applied, the tested form may be a part): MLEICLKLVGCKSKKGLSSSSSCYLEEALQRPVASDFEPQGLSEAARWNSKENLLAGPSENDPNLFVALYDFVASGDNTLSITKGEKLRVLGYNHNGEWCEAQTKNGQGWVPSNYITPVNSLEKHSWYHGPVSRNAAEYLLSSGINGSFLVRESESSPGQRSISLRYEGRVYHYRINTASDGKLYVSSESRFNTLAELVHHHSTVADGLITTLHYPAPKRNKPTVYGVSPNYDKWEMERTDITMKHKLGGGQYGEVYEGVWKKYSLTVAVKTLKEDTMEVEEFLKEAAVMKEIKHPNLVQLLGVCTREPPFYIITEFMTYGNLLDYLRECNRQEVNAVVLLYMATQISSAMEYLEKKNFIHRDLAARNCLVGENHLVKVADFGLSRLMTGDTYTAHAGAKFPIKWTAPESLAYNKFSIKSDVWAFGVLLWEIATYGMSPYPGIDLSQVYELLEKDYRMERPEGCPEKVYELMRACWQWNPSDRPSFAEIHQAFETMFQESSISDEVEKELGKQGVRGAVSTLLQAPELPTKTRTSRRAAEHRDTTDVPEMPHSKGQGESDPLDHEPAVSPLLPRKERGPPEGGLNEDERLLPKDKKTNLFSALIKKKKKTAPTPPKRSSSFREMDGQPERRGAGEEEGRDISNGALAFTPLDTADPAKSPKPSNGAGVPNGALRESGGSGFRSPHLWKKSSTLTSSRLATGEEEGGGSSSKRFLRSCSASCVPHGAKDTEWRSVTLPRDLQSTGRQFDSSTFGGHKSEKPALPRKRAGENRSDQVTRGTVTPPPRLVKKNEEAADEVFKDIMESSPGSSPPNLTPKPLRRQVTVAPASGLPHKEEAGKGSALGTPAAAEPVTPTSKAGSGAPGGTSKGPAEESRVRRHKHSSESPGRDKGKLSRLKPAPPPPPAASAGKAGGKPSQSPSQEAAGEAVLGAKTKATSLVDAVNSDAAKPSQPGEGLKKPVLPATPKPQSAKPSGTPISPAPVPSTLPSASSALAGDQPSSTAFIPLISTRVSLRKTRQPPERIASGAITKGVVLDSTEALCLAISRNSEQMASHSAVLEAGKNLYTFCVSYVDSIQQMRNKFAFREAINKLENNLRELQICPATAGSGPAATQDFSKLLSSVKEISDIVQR

Cc1cc(Nc2cc(N3CCN(C(C)(C)CF)CC3)nc(Sc3cc(F)c4nc(C)ccc4c3)n2)[nH]n1 [Compound I-6]
IC50 (Colo205 cells): 100 to 1000 nM

Cc1cc(Nc2cc(N3CCN(C(C)(C)CF)CC3)nc(Sc3ccc4nc(C(F)(F)F)cn4c3)n2)[nH]n1 [Compound I-11]
IC50 (Colo205 cells): 100 to 1000 nM

Cc1cc(Nc2cc(N3CCN(C4CCN(C)CC4)CC3)nc(Sc3cc(F)c4nc(C)ccc4c3)n2)[nH]n1 [Compound I-13, 2-(8-fluoro-2-methylquinolin-6-ylthio)-N-(3-methyl-1H-pyrazol-5-yl)-6-(4-(1-methylpiperidin-4-yl)piperazin-1-yl)pyrimidin-4-amine]
Ki (Aurora-1 (Aurora B)): 10 to 20 nM
Ki [1]: < 25 nM
Ki (Aurora-2 (Aurora A)): 1 to 2 nM

Cc1cc(Nc2cc(N3CCN(C4CC4)CC3)nc(Sc3ccc4nc(C(F)(F)F)cn4c3)n2)[nH]n1 [Compound I-14]
IC50 (Colo205 cells): 100 to 1000 nM

Cc1cc(Nc2cc(N3CCN(C4CC4)CC3)nc(Sc3cc(F)c4nc(C)ccc4c3)n2)[nH]n1 [Compound I-15]
IC50 (Colo205 cells): 100 to 1000 nM

Cc1cc(Nc2cc(N3CCN(C(C)(C)CF)CC3)nc(Sc3ccc4nc(C(F)(F)F)n(C)c4c3)n2)[nH]n1 [Compound I-21]
IC50 (Colo205 cells): 100 to 1000 nM

Cc1cc(Nc2cc(N3CCN(CC(F)(F)F)CC3)nc(Sc3ccc4nc(C(F)(F)F)cn4c3)n2)[nH]n1 [Compound I-22]
IC50 (Colo205 cells): 100 to 1000 nM

Cc1cc(Nc2cc(N3CCN(CC(F)(F)F)CC3)nc(Sc3cc(F)c4nc(C)ccc4c3)n2)[nH]n1 [Compound I-23]
IC50 (Colo205 cells): 100 to 1000 nM
